Measured values as given in ChEMBL document CHEMBL1201862, “PubChem BioAssay data set” (2004).
The source made the active and inactive calls.

Assays:
[1] = target: Serine/threonine-protein phosphatase (Homo sapiens, UniProt Q9BPW0); assay: inhibition of protein phosphatase 5 activity – biochemical, fluorescence, dose response (AID 2395)
[2] = target: T1, Oxysterols receptor LXR-beta (Homo sapiens, UniProt P55055); assay: LXR agonists, Gal4 luciferase reporter, dose response, counter-screen for ssDAF-12 agonist project, cell-based, luminescence, HEK293, S. stercoralis campaign (AID 720737); format: functional; details: read-out: IC50 (the source's name)
T1 sequence (P55055 whole entry): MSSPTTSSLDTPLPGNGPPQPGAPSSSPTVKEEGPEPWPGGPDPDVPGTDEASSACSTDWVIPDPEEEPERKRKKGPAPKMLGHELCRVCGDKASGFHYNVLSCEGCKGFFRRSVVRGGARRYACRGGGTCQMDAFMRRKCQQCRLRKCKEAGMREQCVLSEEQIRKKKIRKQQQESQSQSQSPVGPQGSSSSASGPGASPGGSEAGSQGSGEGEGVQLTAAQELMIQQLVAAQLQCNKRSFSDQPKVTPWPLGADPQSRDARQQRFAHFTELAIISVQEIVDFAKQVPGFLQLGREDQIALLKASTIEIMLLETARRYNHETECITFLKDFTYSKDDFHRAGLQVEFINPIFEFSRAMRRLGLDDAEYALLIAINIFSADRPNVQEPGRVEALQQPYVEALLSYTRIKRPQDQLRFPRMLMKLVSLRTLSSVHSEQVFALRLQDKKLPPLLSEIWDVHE

[3] = Counterscreen for IDE inhibitors: Luminescence-based cell-based high throughput dose response assay to identify compounds that are cytotoxic to HEK cells. [Related pubchem assays: 434962 (Primary screen (IDE inhibitors in singlicate)), 449730 (Counterscreen (Cytotoxicity in triplicate)), 435028 (Confirmation (IDE inhibitors in triplicate)) …; format: functional; details: HEK293
Insulin-degrading enzyme = target: T2, Insulin-degrading enzyme (Homo sapiens, UniProt P14735); assay: Dose Response: Fluorescence polarization-based cell-based high throughput dose response assay for inhibitors of insulin-degrading enzyme (IDE). [Related pubchem assays: 434962 (Primary screen (IDE inhibitors in singlicate)), 449730 (Counterscreen (Cytotoxicity in triplicate)), 435028 (Confirmation (IDE inhibitors in triplicate)), 434984 (Summary …; format: functional
T2 sequence (P14735 whole entry): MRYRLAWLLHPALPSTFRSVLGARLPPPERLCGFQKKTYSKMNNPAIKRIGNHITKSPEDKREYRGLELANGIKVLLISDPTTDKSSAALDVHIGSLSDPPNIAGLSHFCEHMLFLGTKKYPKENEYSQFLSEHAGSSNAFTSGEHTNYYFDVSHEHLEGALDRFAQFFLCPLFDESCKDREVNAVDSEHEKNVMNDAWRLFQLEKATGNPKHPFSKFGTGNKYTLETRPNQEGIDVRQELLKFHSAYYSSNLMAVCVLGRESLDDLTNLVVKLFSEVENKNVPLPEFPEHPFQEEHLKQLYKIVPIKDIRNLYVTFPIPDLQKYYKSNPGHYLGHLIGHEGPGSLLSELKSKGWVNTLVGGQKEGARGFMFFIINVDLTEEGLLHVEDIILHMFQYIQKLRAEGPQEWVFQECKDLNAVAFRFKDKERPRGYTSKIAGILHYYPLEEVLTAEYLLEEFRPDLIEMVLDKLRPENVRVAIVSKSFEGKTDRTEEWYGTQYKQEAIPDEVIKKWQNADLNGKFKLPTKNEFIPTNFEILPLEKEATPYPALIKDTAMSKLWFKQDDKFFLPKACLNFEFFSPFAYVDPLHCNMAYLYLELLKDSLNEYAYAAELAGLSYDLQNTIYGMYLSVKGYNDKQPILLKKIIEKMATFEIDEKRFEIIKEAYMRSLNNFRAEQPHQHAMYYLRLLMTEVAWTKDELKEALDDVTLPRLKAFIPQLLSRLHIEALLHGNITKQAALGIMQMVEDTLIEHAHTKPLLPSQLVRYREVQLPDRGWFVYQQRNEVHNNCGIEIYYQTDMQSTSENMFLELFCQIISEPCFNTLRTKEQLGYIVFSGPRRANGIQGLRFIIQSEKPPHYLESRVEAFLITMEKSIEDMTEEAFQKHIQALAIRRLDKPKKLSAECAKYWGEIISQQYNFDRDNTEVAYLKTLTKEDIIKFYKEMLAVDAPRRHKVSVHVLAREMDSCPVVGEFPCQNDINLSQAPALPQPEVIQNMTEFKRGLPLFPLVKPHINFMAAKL

Sequence of Serine/threonine-protein phosphatase (Q9BPW0 whole entry, the tested form may be a part): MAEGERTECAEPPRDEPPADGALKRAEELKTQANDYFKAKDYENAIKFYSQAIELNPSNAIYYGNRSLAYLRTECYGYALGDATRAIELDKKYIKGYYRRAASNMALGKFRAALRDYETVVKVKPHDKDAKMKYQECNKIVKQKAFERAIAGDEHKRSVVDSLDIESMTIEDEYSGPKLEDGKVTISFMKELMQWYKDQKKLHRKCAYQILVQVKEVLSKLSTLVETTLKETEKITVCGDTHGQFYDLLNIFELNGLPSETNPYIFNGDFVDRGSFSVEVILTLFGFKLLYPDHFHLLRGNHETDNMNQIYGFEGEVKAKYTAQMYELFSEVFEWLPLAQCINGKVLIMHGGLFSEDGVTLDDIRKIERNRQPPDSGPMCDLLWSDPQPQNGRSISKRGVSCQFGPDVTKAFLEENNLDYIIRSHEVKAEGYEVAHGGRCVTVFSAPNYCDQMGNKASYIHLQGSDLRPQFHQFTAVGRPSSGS

Structure (SMILES) | IC50 [1] | EC50 [2] | IC50 [3] | IC50 (Insulin-degrading enzyme)
COc1ccc(/C=N/Nc2cc(N(C)C)nc(N(C)C)n2)cc1 | 4.01 µM (active) | – | – | –
C/C(=N\c1cccc(C)c1)c1sc2ccccc2c1O | – | > 67.6 µM (inactive) | 43.1 µM (not active) | 22.7 µM (not active)
